Reference: patent publication US9216170B2, “Combination therapy for proliferative disorders” (Hoffman-La Roche Inc., priority 2012, dated 2015)
Where two headings read alike, the source gives them in different places.

Tests used:
[1] = tested on: RKO cell xenografts; experiment: Tumor growth inhibition in RKO xenograft-bearing mice; type: in vivo; conditions: for Mean Tumor Volume (mm^3) Start Study DAY: 14: baseline; for Full Regression / Partial Regression: number of animals
Protocol: (§1) Mice were implanted with RKO cell xenografts. The mice, cell line used, and implantation are described below.
(§2) RKO cells (American Type Culture Collection, Rockville, Md.) were maintained in DMEM media+10% (v/v) heat-inactivated FBS+1% (v/v) […] L-glutamine. Each mouse received 2×10^6 cells in a total volume of 0.2 ml. Cells were implanted subcutaneously in the right flank of each mouse using a 1 cc syringe and a 26 gauge needle.
(§3) RKO xenograft-containing mice were randomized into groups of 10 mice each according to tumor volume so that all groups had similar starting mean tumor volumes of about 145 mm^3.
(§4) 10 groups of mice were used.
(§5) Treatment duration was 2 weeks.
Efficacy data was graphically represented as the mean tumor volume±standard error of the mean (SEM). Tumor volumes of treated groups were presented as percentages of tumor volumes of the control groups (% T/C), using the formula: 100×((T−T0)/(C−C0)), where T represented mean tumor volume of a treated group on a specific day during the experiment, T0 represented mean tumor volume of the same […] group on the first day of treatment; C represented mean tumor volume of a control group on the specific day during the experiment, and C0 represented mean tumor volume of the same […] group on the first day of treatment.
Tumor volume (in cubic millimeters) was calculated using the ellipsoid formula: (D×(d2))/2 where ‘D’ represents the large diameter of the tumor, and ‘d’ represents the small diameter.
Statistical analysis of treated groups was compared with the vehicle group with Mann-Whitney Rank Sum Test, comparisons between groups were analyzed by one-way ANOVA, and post-hoc Bonferroni t-test (GraphPad Prism, version 5.03). Differences between groups were considered to be significant when the probability value (p) was ≦0.05.

[2] = tested on: RKO cell xenografts; experiment: Assessment of survival / increase in life span (ILS) in RKO xenograft-bearing mice; type: in vivo; conditions: for % Increased Life Span: Table 3; for % ILS: Table 4; for 50% Treatment Days: median survival day
Protocol: as §1, §2, §3, §4, §5
For survival assessment, results are plotted as the percentage survival against days after tumor implant (GraphPad Prism, version 5.03). An individual tumor volume of 1500 mm^3 was used as a surrogate for death. The % ILS was calculated as 100×[(median survival day of treated group−median survival day of control group)/median survival day of control group]. Median survival was determined utilizing Kaplan Meier survival analysis. Survival in treated groups was compared with the vehicle group by Log-rank (Mantel-Cox) Test (GraphPad Prism, version 4.3, La Jolla, Calif.). Differences between groups were considered significant when the probability value (p) was ≦0.05.

[3] = Compound III 100 mg/kg qweekly po
[4] = Compound II 200 mg/kg qweekly po

With COc1cc(C(=O)O)ccc1NC(=O)[C@@H]1N[C@@H](CC(C)(C)C)[C@](C#N)(c2ccc(Cl)cc2F)[C@H]1c1cccc(Cl)c1F [Compound III] the “# of animals ≧ 20% BWL” value (Compound III 80 mg/kg qdx5 po) was 0, the “% Change in Body Weight at end of Study Day 28” value (from here on “% Change in Body Weight at end”) (Compound III 80 mg/kg qdx5 po) was 5.3% and the “Max % Weight Gain” value (Compound III 80 mg/kg qdx5 po) was 7.4%. For the same compound, the “Max % Weight Loss” value (Compound III 80 mg/kg qdx5 po) was 5.3%, the Mortality (Compound III 80 mg/kg qdx5 po) was 0 and the “# of animals ≧ 20% BWL” value [3] was 0. The “% Change in Body Weight at end” value [3] was 6.6%, the “Max % Weight Gain” value [3] was 7.5% and the “Max % Weight Loss” value [3] was 4.7%. The Mortality [3] was 0, the “% Inhibition end of study Day: 28” value ([1]; Compound III 80 mg/kg qdx5 po) was 65% and the “% T/C end of study Day: 28” value ([1]; Compound III 80 mg/kg qdx5 po) was 35%. For the same compound, the “Mean Tumor Volume (mm^3) End Study DAY: 29” value (shortened to “Mean Tumor Volume … 29”) ([1]; Compound III 80 mg/kg qdx5 po) was 705.24 mm^3, the “Mean Tumor Volume (mm^3) Start Study DAY: 14” value (from here on “Mean Tumor Volume … 14”) ([1]; Compound III 80 mg/kg qdx5 po) was 143.00 mm^3 and the “Full Regression” value ([1]; Compound III 80 mg/kg qdx5 po) was 0. For the same compound, the “Partial Regression” value ([1]; Compound III 80 mg/kg qdx5 po) was 0, the “% Inhibition end of study Day: 28” value [1, 3] was 50% and the “% T/C end of study Day: 28” value [1, 3] was 50%. For the same compound, the “Mean Tumor Volume … 29” value [1, 3] was 952.64 mm^3, the “Mean Tumor Volume … 14” value [1, 3] was 147.78 mm^3 and the “Full Regression” value [1, 3] was 0. For the same compound, the “Partial Regression” value [1, 3] was 0, the “% Increased Life Span” value ([2]; Compound III 80 mg/kg qdx5 po) was 29% and the “% Increased Life Span” value [2, 3] was 29%. For the same compound, the “% ILS” value ([2]; Compound III 80 mg/kg) was 29%, the “% ILS” value ([2]; Compound III 100 mg/kg) was 29% and the “50% Treatment Days” value ([2]; Compound III 80 mg/kg) was 31 days. For the same compound, the “50% Treatment Days” value ([2]; Compound III 100 mg/kg) was 31 days.
With CCOc1cc(C(C)(C)C)ccc1C1=N[C@@](C)(c2ccc(Cl)cc2)[C@@](C)(c2ccc(Cl)cc2)N1C(=O)N1CCN(CCCS(C)(=O)=O)CC1 [Compound II] the Reason for mortality/morbidity (Compound II 100 mg/kg qd po) was “Technical”, the “% Inhibition end of study Day: 28” value ([1]; Compound II 100 mg/kg qd po) was 64% and the “% T/C end of study Day: 28” value ([1]; Compound II 100 mg/kg qd po) was 36%. For the same compound, the “Mean Tumor Volume … 29” value ([1]; Compound II 100 mg/kg qd po) was 726.30 mm^3, the “Mean Tumor Volume … 14” value ([1]; Compound II 100 mg/kg qd po) was 146.39 mm^3 and the “Full Regression” value ([1]; Compound II 100 mg/kg qd po) was 0. The “Partial Regression” value ([1]; Compound II 100 mg/kg qd po) was 0, the “% Inhibition end of study Day: 28” value [1, 4] was 18% and the “% T/C end of study Day: 28” value [1, 4] was 82%. The “Mean Tumor Volume … 29” value [1, 4] was 1466.93 mm^3, the “Mean Tumor Volume … 14” value [1, 4] was 141.33 mm^3 and the “Full Regression” value [1, 4] was 0. The “Partial Regression” value [1, 4] was 0, the “% Increased Life Span” value ([2]; Compound II 100 mg/kg qd po) was 29% and the “% Increased Life Span” value [2, 4] was 0%. For the same compound, the “% ILS” value ([2]; Compound II 100 mg/kg) was 29%, the “% ILS” value ([2]; Compound II 200 mg/kg) was 0% and the “50% Treatment Days” value ([2]; Compound II 100 mg/kg) was 31 days. For the same compound, the “50% Treatment Days” value ([2]; Compound II 200 mg/kg) was 24 days.
In the case of CCCS(=O)(=O)Nc1ccc(F)c(C(=O)c2c[nH]c3ncc(-c4ccc(Cl)cc4)cc23)c1F [vemurafenib, Propane-1-sulfonic acid {3-[5-(4-chlorophenyl)-1H-pyrrolo[2,3-b]pyridine-3-carbonyl-2,4-difluoro-phenyl]-amide}, reference compound], the “# of animals ≧ 20% BWL” value (vemurafenib 50 mg/kg bid po) is reported as 0, the “% Change in Body Weight at end” value (vemurafenib 50 mg/kg bid po) is reported as 4.6% and the “Max % Weight Gain” value (vemurafenib 50 mg/kg bid po) is reported as 7.5%. The “Max % Weight Loss” value (vemurafenib 50 mg/kg bid po) was 2.8%, the Mortality (vemurafenib 50 mg/kg bid po) was 0 and the “% Inhibition end of study Day: 28” value ([1]; vemurafenib 50 mg/kg bid po) was 7%. For the same compound, the “% T/C end of study Day: 28” value ([1]; vemurafenib 50 mg/kg bid po) was 93%, the “Mean Tumor Volume … 29” value ([1]; vemurafenib 50 mg/kg bid po) was 1643.76 mm^3 and the “Mean Tumor Volume … 14” value ([1]; vemurafenib 50 mg/kg bid po) was 142.50 mm^3. For the same compound, the “Full Regression” value ([1]; vemurafenib 50 mg/kg bid po) was 0, the “Partial Regression” value ([1]; vemurafenib 50 mg/kg bid po) was 0 and the “% Increased Life Span” value ([2]; vemurafenib 50 mg/kg bid po) was 0%. The “% ILS” value ([2]; vemurafenib 50 mg/kg) was 0% and the “50% Treatment Days” value ([2]; vemurafenib 50 mg/kg) was 24 days.
